Reference: patent publication US4178442A, “Novel cinnamoyles piperazines and homopiperazines, the method of preparing them and their application in therapeutics” (Delalande S. A., priority 1977, dated 1979)
Like-named read-outs stand apart in the source and are kept apart here.

Tested on: anaesthetized dog
Assay: Antiangorous activity on anaesthetized dog: consumption of oxygen in the left ventricule and cardiac effort (KATZ's index)
Type: in vivo
Settings: for inhibition in vivo at 2.5 mg/kg / inhibition in vivo at […] / inhibition in vivo at 0.625 mg/kg / inhibition in vivo at 1.25 mg/kg: Canis lupus familiaris, iv; for inhibition in vivo at […]: 0.15 mg/kg i.v. slow perfusion
Procedure: The antiangorous activity was tested on an anaesthetized dog (sodium pentobarbital 30 mg/kg/i.v.).
The consumption of oxygen in the left ventricule was estimated by the product of the coronary venous flow and the coronary arteriovenous difference in oxygen (% volume).
The coronary venous flow was measured at the coronary venous sinus by means of a modified Morawitz cannula, introduced under radioscopic control.
The cardiac effort was estimated according to KATZ's index, by the product of the average arterial pressure and the cardiac frequency.
The cardiac frequency was estimated from the electrocardiogram recorded with D2 derivation.
It should be noted that the compounds tested were injected intravenously with slow perfusion.

[1] = 2.5 mg/kg i.v. slow perfusion, read-out: Diminution in consumption of O2
[2] = 2.5 mg/kg i.v. slow perfusion, read-out: Diminution in the cardiac effort (IK)
[3] = 0.625 mg/kg i.v. slow perfusion
[4] = 0.625 mg/kg i.v. slow perfusion, read-out: Diminution in consumption of O2
[5] = 0.625 mg/kg i.v. slow perfusion, read-out: Diminution in the cardiac effort (IK)

Row | SMILES | Diminution in consumption of O2: in time (2.5 mg/kg i.v. slow perfusion) | Diminution in the cardiac effort (IK): in time (2.5 mg/kg i.v. slow perfusion) | inhibition in vivo at 2.5 mg/kg [1] | inhibition in vivo at 2.5 mg/kg [2] | other results
1 | COc1cc(/C=C/C(=O)N2CCN(CC(O)COc3ccc(C(C)=O)cc3OC)CC2)cc(OC)c1 (stereo not shown) [780 404] | 15 min | 30 min | 69% | 44% | 
2 | COc1ccc(NC(=O)Nc2ccc(OCC(O)CN3CCN(C(=O)/C=C/c4cc(OC)c(OC)c(OC)c4)CC3)c3c2OCCO3)cc1 (stereo not shown) [780 223] | 90 min | 90 min | 62% | 35% | 
3 | COc1cc(/C=C/C(=O)N2CCN(CC(O)COc3ccc(NC(C)=O)c4c3OCO4)CC2)cc(OC)c1OC (stereo not shown) [780 346] |  |  |  |  | inhibition in vivo at […] (read-out: Diminution in consumption of O2): 43%; inhibition in vivo at […] (read-out: Diminution in the cardiac effort (IK)): 2%
4 | COc1cc(/C=C/C(=O)N2CCN(CC(O)CSc3cccc4c3OCCO4)CC2)cc(OC)c1OC (stereo not shown) [780 389] | 15 min | 30 min | 32% | 15% | 
5 | CCCc1ccc(OCC(O)CN2CCN(C(=O)/C=C/c3cc(OC)c(OC)c(OC)c3)CC2)cc1 (stereo not shown) [780 267] | 30 min |  | 27% | 8% | 
6 | COc1cc(C=O)ccc1OCC(O)CN1CCN(C(=O)/C=C/c2cc(OC)c(OC)c(OC)c2)CC1 (stereo not shown) [780 329] | 30 min | 30 min | 21% | 13% | 
7 | COc1cc(C#N)ccc1OCC(O)CN1CCN(C(=O)/C=C/c2cc(OC)c(OC)c(OC)c2)CC1 (stereo not shown) [771 281] | 30 min | 30 min | 23% | 44% | 
8 | COc1cc(C(C)=O)ccc1OCC(O)CN1CCCN(C(=O)/C=C/c2cc(OC)c(OC)c(OC)c2)CC1 (stereo not shown) [780 269] | 30 min | 60 min | 34% | 40% | 
9 | CNC(=O)Nc1ccc(OCC(O)CN2CCN(C(=O)/C=C/c3cc(OC)c(OC)c(OC)c3)CC2)c2c1OCCCO2 (stereo not shown) [780 456] |  |  |  |  | Diminution in consumption of O2: in time [3]: 15 min; Diminution in the cardiac effort (IK): in time [3]: 30 min; inhibition in vivo at 0.625 mg/kg [4]: 13%; inhibition in vivo at 0.625 mg/kg [5]: 32%
10 | COc1cc(/C=C/C(=O)N2CCN(CC(O)COc3ccc(C(=O)OC(C)C)c4c3OCCO4)CC2)cc(OC)c1OC (stereo not shown) [780 373] | 30 min | 30 min | 66% | 25% | 
11 | COc1cc(/C=C/C(=O)N2CCN(CC(O)COc3ccc(C(C)=O)c4ccccc34)CC2)cc(OC)c1OC (stereo not shown) [771 315] |  |  |  |  | Diminution in the cardiac effort (IK): in time (1.25 mg/kg i.v. slow perfusion): 15 min; inhibition in vivo at 1.25 mg/kg (1.25 mg/kg i.v. slow perfusion, read-out: Diminution in consumption of O2): 11%; inhibition in vivo at 1.25 mg/kg (1.25 mg/kg i.v. slow perfusion, read-out: Diminution in the cardiac effort (IK)): 29%
12 | CNC(=O)c1ccc(OCCCN2CCN(C(=O)/C=C/c3cc(OC)c(OC)c(OC)c3)CC2)c2c1OCCO2 [771 163] |  |  |  |  | Diminution in consumption of O2: in time [3]: 30 min; Diminution in the cardiac effort (IK): in time [3]: 40 min; inhibition in vivo at 0.625 mg/kg [4]: 61%; inhibition in vivo at 0.625 mg/kg [5]: 20%
13 | CNC(=O)Nc1ccc(OCC(O)CN2CCN(C(=O)/C=C/c3cc(OC)c(OC)c(OC)c3)CC2)c(Cl)c1 (stereo not shown) [780 189] | 30 min | 45 min | 63% | 30% | 
14 | COc1cc(/C=C/C(=O)N2CCN(CC(O)COc3ccc(C(C)=O)c4c3CCCC4)CC2)cc(OC)c1OC (stereo not shown) [780 128] | 23 min | 23 min | 57% | 17% | 
